From patent US12077503B2, “Substituted cyclic amides and their use as herbicides” (FMC CORPORATION, priority 2015, dated 2024)

How the values were obtained:
Type in all cases: in vivo
[1] = tested on: ivy-leaved morning glory (Ipomoea hederacea); assay: Test G Pre-Emergence Protocol; conditions: Ipomoea, pre-emergence, 312 h, evaluated after 13 days
Summary of the method: (§1)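 Test compound in 0.5% Tween 20 acetone/water (50:50) was applied at three rates (15.625, 62.5, 250 g/ha) to soil sown one day earlier. After 13 days plants were scored for injury, where 0 means unaffected and 100 means completely damaged.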

[2] = tested on: barnyardgrass (Echinochloa crus-galli); assay: Test G Pre-Emergence Protocol; conditions: Echinochloa crus-galli, pre-emergence, 312 h, evaluated after 13 days
Summary of the method: as §1

[3] = tested on: velvetleaf (Abutilon theophrasti); assay: Test G Pre-Emergence Protocol; conditions: Abutilon theophrasti, pre-emergence, 312 h, evaluated after 13 days
Summary of the method: as §1

corn (Zea mays) [4] = assay: Test G Pre-Emergence Protocol; conditions: Zea mays, pre-emergence, 312 h, evaluated after 13 days
Summary of the method: as §1

[5] = tested on: giant foxtail (Setaria faberi); assay: Test G Pre-Emergence Protocol; conditions: Setaria faberi, pre-emergence, 312 h, evaluated after 13 days
Summary of the method: as §1

[6] = tested on: redroot pigweed (Amaranthus retroflexus); assay: Test G Pre-Emergence Protocol; conditions: Amaranthus retroflexus, pre-emergence, 312 h, evaluated after 13 days
Summary of the method: as §1

[7] = tested on: ivy-leaved morning glory (Ipomoea hederacea); assay: Test G Post-Emergence Protocol; conditions: Ipomoea, post-emergence, 312 h, read-out: Morningglory, Ivy-leaved damage rating
Summary of the method: (§2)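 Sow in soil; grow 8 d (24/16 °C, 14 h light, 65% humidity); spray 15.625/62.5/250 g/ha in acetone:water 50:50 + 0.5% Tween 20; grow on, water twice daily; score damage 0–100 at 13 d.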

[8] = tested on: barnyardgrass (Echinochloa crus-galli); assay: Test G Post-Emergence Protocol; conditions: Echinochloa crus-galli, post-emergence, 312 h, read-out: Barnyardgrass damage rating
Summary of the method: as §2

[9] = tested on: velvetleaf (Abutilon theophrasti); assay: Test G Post-Emergence Protocol; conditions: Abutilon theophrasti, post-emergence, 312 h, read-out: Velvetleaf damage rating
Summary of the method: as §2

corn (Zea mays) [10] = assay: Test G Post-Emergence Protocol; conditions: Zea mays, post-emergence, 312 h, read-out: Corn damage rating
Summary of the method: as §2

[11] = tested on: giant foxtail (Setaria faberi); assay: Test G Post-Emergence Protocol; conditions: Setaria faberi, post-emergence, 312 h, read-out: Foxtail, Giant damage rating
Summary of the method: as §2

[12] = tested on: redroot pigweed (Amaranthus retroflexus); assay: Test G Post-Emergence Protocol; conditions: Amaranthus retroflexus, post-emergence, 312 h, read-out: Pigweed, Redroot damage rating
Summary of the method: as §2

[13] = 15.625 g ai/ha, evaluated after 13 days (100=total damage to plant; 0=no damage to plant)
[14] = 62.5 g ai/ha, evaluated after 13 days, 100=total damage to plant, 0=no damage to plant
[15] = 250 g ai/ha, evaluated after 13 days, 100=total damage to plant, 0=no damage to plant

CN1C[C@H](c2ccc(C(F)(F)F)cc2)[C@@H](C(=O)Nc2ccc(C(F)(F)F)cn2)C1=O (racemic) [Compound 1672]
pest or weed control at 15.625 g/ha ([1]; 15.625 g ai/ha, read-out: Morningglory, Ivy-leaved damage rating (100=total damage to plant; 0=no damage to plant)): 0% | pest or weed control at 62.5 g/ha ([1]; 62.5 g ai/ha, 100=total damage to plant, 0=no damage to plant, read-out: Morningglory, Ivy-leaved damage rating): 0% | pest or weed control at 250 g/ha ([1]; 250 g ai/ha, read-out: Morningglory, Ivy-leaved damage rating (100=total damage to plant; 0=no damage to plant)): 0% | pest or weed control at 15.625 g/ha ([2]; 15.625 g ai/ha, read-out: Barnyardgrass damage rating (100=total damage to plant; 0=no damage to plant)): 0% | pest or weed control at 62.5 g/ha ([2]; 62.5 g ai/ha, 100=total damage to plant, 0=no damage to plant, read-out: Barnyardgrass damage rating): 0% | pest or weed control at 250 g/ha ([2]; 250 g ai/ha, read-out: Barnyardgrass damage rating (100=total damage to plant; 0=no damage to plant)): 0% | pest or weed control at 15.625 g/ha ([3]; 15.625 g ai/ha, read-out: Velvetleaf damage rating (100=total damage to plant; 0=no damage to plant)): 0% | pest or weed control at 62.5 g/ha ([3]; 62.5 g ai/ha, 100=total damage to plant, 0=no damage to plant, read-out: Velvetleaf damage rating): 0% | pest or weed control at 250 g/ha ([3]; 250 g ai/ha, read-out: Velvetleaf damage rating (100=total damage to plant; 0=no damage to plant)): 0% | plant injury at 15.625 g/ha (corn (Zea mays) [4]; 15.625 g ai/ha, read-out: Corn damage rating (100=total damage to plant; 0=no damage to plant)): 0% | plant injury at 62.5 g/ha (corn (Zea mays) [4]; 62.5 g ai/ha, 100=total damage to plant, 0=no damage to plant, read-out: Corn damage rating): 0% | plant injury at 250 g/ha (corn (Zea mays) [4]; 250 g ai/ha, read-out: Corn damage rating (100=total damage to plant; 0=no damage to plant)): 0% | pest or weed control at 15.625 g/ha ([5]; 15.625 g ai/ha, read-out: Foxtail, Giant damage rating (100=total damage to plant; 0=no damage to plant)): 0% | pest or weed control at 62.5 g/ha ([5]; 62.5 g ai/ha, 100=total damage to plant, 0=no damage to plant, read-out: Foxtail, Giant damage rating): 0% | pest or weed control at 250 g/ha ([5]; 250 g ai/ha, read-out: Foxtail, Giant damage rating (100=total damage to plant; 0=no damage to plant)): 0% | pest or weed control at 15.625 g/ha ([6]; 15.625 g ai/ha, read-out: Pigweed, Redroot damage rating (100=total damage to plant; 0=no damage to plant)): 0% | pest or weed control at 62.5 g/ha ([6]; 62.5 g ai/ha, 100=total damage to plant, 0=no damage to plant, read-out: Pigweed, Redroot damage rating): 0% | pest or weed control at 250 g/ha ([6]; 250 g ai/ha, read-out: Pigweed, Redroot damage rating (100=total damage to plant; 0=no damage to plant)): 0% | pest or weed control at 15.625 g/ha [7, 13]: 0% | pest or weed control at 62.5 g/ha [7, 14]: 0% | pest or weed control at 250 g/ha [7, 15]: 0% | pest or weed control at 15.625 g/ha [8, 13]: 0% | pest or weed control at 62.5 g/ha [8, 14]: 0% | pest or weed control at 250 g/ha [8, 15]: 0% | pest or weed control at 15.625 g/ha [9, 13]: 0% | pest or weed control at 62.5 g/ha [9, 14]: 0% | pest or weed control at 250 g/ha [9, 15]: 0% | plant injury at 15.625 g/ha (corn (Zea mays) [10]; [13]): 0% | plant injury at 62.5 g/ha (corn (Zea mays) [10]; [14]): 0% | plant injury at 250 g/ha (corn (Zea mays) [10]; [15]): 10% | pest or weed control at 15.625 g/ha [11, 13]: 0% | pest or weed control at 62.5 g/ha [11, 14]: 0% | pest or weed control at 250 g/ha [11, 15]: 0% | pest or weed control at 15.625 g/ha [12, 13]: 0% | pest or weed control at 62.5 g/ha [12, 14]: 30% | pest or weed control at 250 g/ha [12, 15]: 40%
